Data from patent publication US10072026B2, “Crystalline form of 3-((1R,3s,5S)-3-((7-((5-methyl-1H-pyrazol-3-yl)amino)-1,6-naphthyridin-5-yl)amino)-8-azabicyclo[3.2.1]octan-8-yl)propanenitrile” (priority 2015, dated 2018).

How the values were obtained:
JAK1 = JAK1 (Homo sapiens (Human), UniProt P23458); experiment: LanthaScreen JAK biochemical assay (JAK1)
JAK2 = JAK2 (Homo sapiens (Human), UniProt O60674); experiment: LanthaScreen JAK biochemical assay (JAK2)
JAK3 = JAK3 (Homo sapiens (Human), UniProt P52333); experiment: LanthaScreen JAK biochemical assay (JAK3)
[1] = system: IL-4 induced STAT6 phosphorylation in THP-1 human monocytic cells; experiment: Cellular JAK potency assay, THP-1
[2] = system: IL-13 induced STAT6 phosphorylation in BEAS-2B human lung epithelial cells; experiment: AlphaScreen cellular JAK potency assay, BEAS-2B
Tyk2 = Tyk2 (Homo sapiens (Human), UniProt P29597); experiment: LanthaScreen JAK biochemical assay (Tyk2)
Chain of Tyk2 (P29597 whole entry): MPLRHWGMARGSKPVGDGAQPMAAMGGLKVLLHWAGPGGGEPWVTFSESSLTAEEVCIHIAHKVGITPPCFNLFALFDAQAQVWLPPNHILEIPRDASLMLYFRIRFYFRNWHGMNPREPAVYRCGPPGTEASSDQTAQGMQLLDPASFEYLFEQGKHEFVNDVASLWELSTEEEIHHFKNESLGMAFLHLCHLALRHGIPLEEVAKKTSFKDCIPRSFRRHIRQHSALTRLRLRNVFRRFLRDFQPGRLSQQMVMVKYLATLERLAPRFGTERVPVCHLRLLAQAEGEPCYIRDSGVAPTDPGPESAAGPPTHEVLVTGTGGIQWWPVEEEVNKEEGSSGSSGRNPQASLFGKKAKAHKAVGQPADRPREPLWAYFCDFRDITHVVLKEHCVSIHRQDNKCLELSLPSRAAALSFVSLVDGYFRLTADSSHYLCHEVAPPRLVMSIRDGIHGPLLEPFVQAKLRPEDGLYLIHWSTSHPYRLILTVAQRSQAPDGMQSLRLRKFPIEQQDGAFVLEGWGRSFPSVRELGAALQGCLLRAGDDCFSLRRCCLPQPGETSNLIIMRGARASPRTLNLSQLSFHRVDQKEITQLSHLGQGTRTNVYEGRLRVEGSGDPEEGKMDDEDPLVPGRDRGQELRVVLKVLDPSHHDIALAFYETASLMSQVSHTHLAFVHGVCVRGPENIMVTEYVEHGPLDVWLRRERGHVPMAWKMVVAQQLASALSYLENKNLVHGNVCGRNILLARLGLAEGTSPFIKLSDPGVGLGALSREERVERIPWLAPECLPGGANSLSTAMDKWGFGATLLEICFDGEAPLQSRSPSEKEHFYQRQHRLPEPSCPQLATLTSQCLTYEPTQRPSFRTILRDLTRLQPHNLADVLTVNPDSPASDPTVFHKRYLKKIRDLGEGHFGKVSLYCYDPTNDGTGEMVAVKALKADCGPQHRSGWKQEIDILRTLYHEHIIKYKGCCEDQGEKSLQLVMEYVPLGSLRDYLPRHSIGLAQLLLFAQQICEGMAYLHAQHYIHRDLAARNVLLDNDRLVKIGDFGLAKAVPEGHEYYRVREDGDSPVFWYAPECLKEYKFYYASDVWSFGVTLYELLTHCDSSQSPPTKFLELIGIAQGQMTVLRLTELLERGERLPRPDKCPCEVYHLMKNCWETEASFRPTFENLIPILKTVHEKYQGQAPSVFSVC

[3] = IL-4 induced STAT6 phosphorylation, THP-1 cells
[4] = IL-13 induced STAT6 phosphorylation, BEAS-2B cells
[5] = THP-1 cells, IL-4 induced STAT6 phosphorylation
[6] = BEAS-2B cells, IL-13 induced STAT6 phosphorylation

Chain of JAK2 (O60674 whole entry): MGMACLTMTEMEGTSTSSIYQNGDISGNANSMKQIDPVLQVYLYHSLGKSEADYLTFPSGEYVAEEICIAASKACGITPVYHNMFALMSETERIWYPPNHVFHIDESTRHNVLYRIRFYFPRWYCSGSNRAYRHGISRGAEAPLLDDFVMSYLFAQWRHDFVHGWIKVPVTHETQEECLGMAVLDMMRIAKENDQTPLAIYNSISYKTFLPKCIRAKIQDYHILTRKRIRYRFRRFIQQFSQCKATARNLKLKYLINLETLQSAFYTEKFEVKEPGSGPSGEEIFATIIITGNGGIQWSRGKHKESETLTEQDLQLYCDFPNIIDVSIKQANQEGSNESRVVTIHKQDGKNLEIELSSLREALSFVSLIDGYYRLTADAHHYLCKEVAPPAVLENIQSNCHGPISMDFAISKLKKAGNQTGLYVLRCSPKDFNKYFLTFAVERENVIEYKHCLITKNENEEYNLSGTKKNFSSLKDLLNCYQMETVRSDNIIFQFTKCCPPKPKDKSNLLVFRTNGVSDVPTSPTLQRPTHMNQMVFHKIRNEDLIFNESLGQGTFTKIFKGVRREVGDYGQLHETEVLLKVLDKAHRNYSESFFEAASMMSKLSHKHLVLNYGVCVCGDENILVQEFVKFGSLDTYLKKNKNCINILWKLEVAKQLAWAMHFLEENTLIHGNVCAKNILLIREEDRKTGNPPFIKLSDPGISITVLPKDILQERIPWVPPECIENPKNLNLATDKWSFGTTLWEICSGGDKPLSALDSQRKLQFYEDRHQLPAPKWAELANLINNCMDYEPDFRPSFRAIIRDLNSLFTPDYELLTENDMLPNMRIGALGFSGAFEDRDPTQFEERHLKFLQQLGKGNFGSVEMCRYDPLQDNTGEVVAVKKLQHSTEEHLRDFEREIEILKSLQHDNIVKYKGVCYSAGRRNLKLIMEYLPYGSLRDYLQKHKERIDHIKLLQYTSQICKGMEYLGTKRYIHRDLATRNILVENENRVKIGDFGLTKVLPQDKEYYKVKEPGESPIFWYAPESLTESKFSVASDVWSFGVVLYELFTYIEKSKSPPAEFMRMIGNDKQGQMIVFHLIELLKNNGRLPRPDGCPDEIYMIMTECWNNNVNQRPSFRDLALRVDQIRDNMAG
Chain of JAK1 (P23458 whole entry): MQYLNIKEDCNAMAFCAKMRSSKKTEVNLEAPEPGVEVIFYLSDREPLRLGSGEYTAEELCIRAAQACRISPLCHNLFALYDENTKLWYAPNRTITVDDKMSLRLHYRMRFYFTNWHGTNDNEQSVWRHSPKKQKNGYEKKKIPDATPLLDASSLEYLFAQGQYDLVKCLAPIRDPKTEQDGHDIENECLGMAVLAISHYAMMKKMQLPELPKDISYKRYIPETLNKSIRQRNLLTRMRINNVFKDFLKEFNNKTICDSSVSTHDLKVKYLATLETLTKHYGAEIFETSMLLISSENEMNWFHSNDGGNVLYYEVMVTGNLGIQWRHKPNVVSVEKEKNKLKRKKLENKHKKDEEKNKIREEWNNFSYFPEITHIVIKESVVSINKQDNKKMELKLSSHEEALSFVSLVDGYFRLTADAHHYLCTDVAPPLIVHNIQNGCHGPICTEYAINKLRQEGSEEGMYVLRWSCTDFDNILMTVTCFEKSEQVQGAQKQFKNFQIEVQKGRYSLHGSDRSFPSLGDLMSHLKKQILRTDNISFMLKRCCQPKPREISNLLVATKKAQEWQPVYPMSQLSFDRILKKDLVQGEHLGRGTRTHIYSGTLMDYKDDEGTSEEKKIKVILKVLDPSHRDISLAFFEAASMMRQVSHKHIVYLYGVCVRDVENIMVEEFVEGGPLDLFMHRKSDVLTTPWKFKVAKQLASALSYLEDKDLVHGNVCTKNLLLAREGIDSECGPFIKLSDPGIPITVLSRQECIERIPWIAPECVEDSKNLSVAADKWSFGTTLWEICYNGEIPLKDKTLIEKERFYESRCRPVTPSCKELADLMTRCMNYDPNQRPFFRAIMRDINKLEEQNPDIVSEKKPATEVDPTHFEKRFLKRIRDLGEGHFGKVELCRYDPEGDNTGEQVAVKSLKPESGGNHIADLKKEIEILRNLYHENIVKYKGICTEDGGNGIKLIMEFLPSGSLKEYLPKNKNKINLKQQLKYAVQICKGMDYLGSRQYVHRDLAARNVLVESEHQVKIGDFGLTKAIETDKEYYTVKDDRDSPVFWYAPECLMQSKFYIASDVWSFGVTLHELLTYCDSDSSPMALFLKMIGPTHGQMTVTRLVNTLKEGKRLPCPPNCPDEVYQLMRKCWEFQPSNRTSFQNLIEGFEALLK

SMILES | JAK 1 (pKi) (JAK1) | JAK 2 (pKi) (JAK2) | JAK 3 (pKi) (JAK3) | THP-1 IL4 pIC50 [1, 3] | BEAS2B pIC50 [2, 4] | Tyk 2 (pKi) (Tyk2) | THP-1 IL4 pIC50 [1, 5] | BEAS2B pIC50 [2, 6]
Cc1cc(Nc2cc3ncccc3c(N[C@@H]3C[C@H]4CC[C@@H](C3)N4C(=O)C(C)F)n2)n[nH]1 (stereo partly shown) [Example 2-3] | B (B represents a pKi value between 9 and 10 (Ki between 1 nM and 0.1 nM)) | B (B represents a pKi value between 9 and 10 (Ki between 1 nM and 0.1 nM)) | C (C represents a pKi value between 7 and 9 (Ki between 100 nM and 1 nM)) | B (B represents a pEC50 value between 6.7 and 7.5 (EC50 between 200 nM and 32 nM)) | A (A represents a pEC50 value≥7.5 (EC50≤32 nM)) | – | – | –
CCC(C)C(=O)N1C2CCCC1CC(Nc1nc(Nc3cc(C)[nH]n3)cc3ncccc13)C2 (stereo not shown) [Example 2-18] | B (B represents a pKi value between 9 and 10 (Ki between 1 nM and 0.1 nM)) | B (B represents a pKi value between 9 and 10 (Ki between 1 nM and 0.1 nM)) | C (C represents a pKi value between 7 and 9 (Ki between 100 nM and 1 nM)) | A (A represents a pEC50 value≥7.5 (EC50≤32 nM)) | – | B (B represents a pKi value between 9 and 10 (Ki between 1 nM and 0.1 nM)) | – | –
C=CCOC(=O)N1[C@@H]2CC[C@H]1C[C@H](Nc1nc(Nc3cc(C)[nH]n3)cc3nc(OC)ccc13)C2 [Example 5-7] | B (B represents a pKi value between 9 and 10 (Ki between 1 nM and 0.1 nM)) | – | C (C represents a pKi value between 7 and 9 (Ki between 100 nM and 1 nM)) | B (B represents a pEC50 value between 6.7 and 7.5 (EC50 between 200 nM and 32 nM)) | A (A represents a pEC50 value≥7.5 (EC50≤32 nM)) | – | – | –
Cc1cc(Nc2cc3nc(CN4CCC(F)(F)CC4)ccc3c(N[C@@H]3C[C@H]4CC[C@@H](C3)N4CC(C)C)n2)n[nH]1 [Example 5-34] | B (B represents a pKi value between 9 and 10 (Ki between 1 nM and 0.1 nM)) | B (B represents a pKi value between 9 and 10 (Ki between 1 nM and 0.1 nM)) | C (C represents a pKi value between 7 and 9 (Ki between 100 nM and 1 nM)) | B (B represents a pEC50 value between 6.7 and 7.5 (EC50 between 200 nM and 32 nM)) | – | B (B represents a pKi value between 9 and 10 (Ki between 1 nM and 0.1 nM)) | – | –
Cc1cc(Nc2cc3nc(CS(C)(=O)=O)ccc3c(N[C@@H]3C[C@H]4CC[C@@H](C3)N4CCC(F)(F)F)n2)n[nH]1 [Example 5-43] | B (B represents a pKi value between 9 and 10 (Ki between 1 nM and 0.1 nM)) | B (B represents a pKi value between 9 and 10 (Ki between 1 nM and 0.1 nM)) | C (C represents a pKi value between 7 and 9 (Ki between 100 nM and 1 nM)) | B (B represents a pEC50 value between 6.7 and 7.5 (EC50 between 200 nM and 32 nM)) | – | B (B represents a pKi value between 9 and 10 (Ki between 1 nM and 0.1 nM)) | – | –
Cc1cnc2cc(Nc3cc(C)[nH]n3)nc(N[C@@H]3C[C@H]4CC[C@@H](C3)N4C(=O)OCC(C)C)c2c1 [Example 6-3] | B (B represents a pKi value between 9 and 10 (Ki between 1 nM and 0.1 nM)) | B (B represents a pKi value between 9 and 10 (Ki between 1 nM and 0.1 nM)) | C (C represents a pKi value between 7 and 9 (Ki between 100 nM and 1 nM)) | – | – | – | B (B represents a pEC50 value between 6.7 and 7.5 (EC50 between 200 nM and 32 nM)) | B (B represents a pEC50 value between 6.7 and 7.5 (EC50 between 200 nM and 32 nM))
Cc1cnc2cc(Nc3cc(C)[nH]n3)nc(N[C@@H]3C[C@H]4CCC[C@@H](C3)N4CCC#N)c2c1 [Example 6-6] | – | A (A represents a pKi value≥10 (Ki≤0.1 nM)) | B (B represents a pKi value between 9 and 10 (Ki between 1 nM and 0.1 nM)) | – | – | – | A (A represents a pEC50 value≥7.5 (EC50≤32 nM)) | A (A represents a pEC50 value≥7.5 (EC50≤32 nM))
Cc1cnc2cc(Nc3cc(C)[nH]n3)nc(N[C@@H]3C[C@H]4CCC[C@@H](C3)N4Cc3ccncc3)c2c1 [Example 6-10] | B (B represents a pKi value between 9 and 10 (Ki between 1 nM and 0.1 nM)) | B (B represents a pKi value between 9 and 10 (Ki between 1 nM and 0.1 nM)) | C (C represents a pKi value between 7 and 9 (Ki between 100 nM and 1 nM)) | – | – | B (B represents a pKi value between 9 and 10 (Ki between 1 nM and 0.1 nM)) | B (B represents a pEC50 value between 6.7 and 7.5 (EC50 between 200 nM and 32 nM)) | –
COc1cnc2cc(Nc3cc(C)[nH]n3)nc(NC3CC4CCCC(C3)N4C(=O)C(C)O)c2c1 (stereo not shown) [Example 6-27] | B (B represents a pKi value between 9 and 10 (Ki between 1 nM and 0.1 nM)) | B (B represents a pKi value between 9 and 10 (Ki between 1 nM and 0.1 nM)) | C (C represents a pKi value between 7 and 9 (Ki between 100 nM and 1 nM)) | – | – | C (C represents a pKi value between 7 and 9 (Ki between 100 nM and 1 nM)) | B (B represents a pEC50 value between 6.7 and 7.5 (EC50 between 200 nM and 32 nM)) | –
CCC(C)C(=O)N1C2CCC1CC(Nc1nc(Nc3cc(C)[nH]n3)cc3ncc(C(=O)OC)cc13)C2 (stereo not shown) [Example 6-38] | B (B represents a pKi value between 9 and 10 (Ki between 1 nM and 0.1 nM)) | B (B represents a pKi value between 9 and 10 (Ki between 1 nM and 0.1 nM)) | C (C represents a pKi value between 7 and 9 (Ki between 100 nM and 1 nM)) | – | – | C (C represents a pKi value between 7 and 9 (Ki between 100 nM and 1 nM)) | B (B represents a pEC50 value between 6.7 and 7.5 (EC50 between 200 nM and 32 nM)) | –
COC(=O)c1cnc2cc(Nc3cc(C)[nH]n3)nc(N[C@@H]3C[C@H]4CCC[C@@H](C3)N4C[C@H]3CCC(=O)O3)c2c1 [Example 6-49] | B (B represents a pKi value between 9 and 10 (Ki between 1 nM and 0.1 nM)) | B (B represents a pKi value between 9 and 10 (Ki between 1 nM and 0.1 nM)) | C (C represents a pKi value between 7 and 9 (Ki between 100 nM and 1 nM)) | – | – | C (C represents a pKi value between 7 and 9 (Ki between 100 nM and 1 nM)) | B (B represents a pEC50 value between 6.7 and 7.5 (EC50 between 200 nM and 32 nM)) | –
Cc1cc(Nc2nc(N[C@@H]3C[C@H]4CC[C@@H](C3)N4S(C)(=O)=O)c3cccnc3c2F)n[nH]1 [Example 8-2] | B (B represents a pKi value between 9 and 10 (Ki between 1 nM and 0.1 nM)) | B (B represents a pKi value between 9 and 10 (Ki between 1 nM and 0.1 nM)) | C (C represents a pKi value between 7 and 9 (Ki between 100 nM and 1 nM)) | – | – | – | A (A represents a pEC50 value≥7.5 (EC50≤32 nM)) | C (C represents a pEC50 value<6.7 (EC50>200 nM))
Cc1cc(Nc2nc(N[C@@H]3C[C@H]4CCC[C@@H](C3)N4S(=O)(=O)c3cncc(F)c3)c3cccnc3c2F)n[nH]1 [Example 8-13] | B (B represents a pKi value between 9 and 10 (Ki between 1 nM and 0.1 nM)) | B (B represents a pKi value between 9 and 10 (Ki between 1 nM and 0.1 nM)) | C (C represents a pKi value between 7 and 9 (Ki between 100 nM and 1 nM)) | – | – | – | B (B represents a pEC50 value between 6.7 and 7.5 (EC50 between 200 nM and 32 nM)) | A (A represents a pEC50 value≥7.5 (EC50≤32 nM))
Cc1cc(Nc2nc(N[C@@H]3C[C@H]4CCC[C@@H](C3)N4Cc3ccncc3)c3cccnc3c2F)n[nH]1 [Example 8-14] | B (B represents a pKi value between 9 and 10 (Ki between 1 nM and 0.1 nM)) | B (B represents a pKi value between 9 and 10 (Ki between 1 nM and 0.1 nM)) | C (C represents a pKi value between 7 and 9 (Ki between 100 nM and 1 nM)) | – | – | – | A (A represents a pEC50 value≥7.5 (EC50≤32 nM)) | A (A represents a pEC50 value≥7.5 (EC50≤32 nM))
Cc1cnc2c(F)c(Nc3cc(C)[nH]n3)nc(N[C@@H]3C[C@H]4CCC[C@@H](C3)N4S(=O)(=O)c3cccnc3)c2c1 [Example 8-24] | B (B represents a pKi value between 9 and 10 (Ki between 1 nM and 0.1 nM)) | B (B represents a pKi value between 9 and 10 (Ki between 1 nM and 0.1 nM)) | C (C represents a pKi value between 7 and 9 (Ki between 100 nM and 1 nM)) | – | – | – | B (B represents a pEC50 value between 6.7 and 7.5 (EC50 between 200 nM and 32 nM)) | B (B represents a pEC50 value between 6.7 and 7.5 (EC50 between 200 nM and 32 nM))
